Results from US11453683B1, “KRas G12D inhibitors” (Mirati Therapeutics, Inc., priority 2019, dated 2022).
pIC50: −log10 of the molar value.

Each compound was assayed against KRas G12D (Homo sapiens (Human), UniProt P01116, G12D) (assay: KRas G12D Binding Assay (TR-FRET displacement)). Settings: TR-FRET displacement of Cy5 labelled tracer, GDP-loaded KRAS G12D, 60 minute incubation at 22° C.
Protocol: After a 60 minute incubation at 22° C., the reaction was measured using a PerkinElmer EnVision multimode plate reader via TR-FRET dual wavelength detection, and the percent of control (POC) calculated using a ratiometric emission factor. […] The POC values were fit to a 4-parameter logistic curve and the IC50 value was determined as the concentration where the curve crosses 50 POC.

KRas G12D, sequence (P01116 other isoform, or with tags, fused parts or gaps G12D): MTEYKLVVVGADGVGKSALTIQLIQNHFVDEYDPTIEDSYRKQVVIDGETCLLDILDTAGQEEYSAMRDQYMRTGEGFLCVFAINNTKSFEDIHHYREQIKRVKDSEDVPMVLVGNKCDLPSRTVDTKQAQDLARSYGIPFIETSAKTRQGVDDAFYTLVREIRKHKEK

Row | Compound | pIC50
1 | COc1ccc(OC(F)(F)F)c(-c2ncc3c(N4CC5CCC(C4)N5)nc(OC[C@@]45CCCN4C[C@H](F)C5)nc3c2F)c1 (racemic) [Example 361, 4-((1R,5S)-3,8-diazabicyclo[3.2.1]octan-3-yl)-8-fluoro-2-((2-fluorotetrahydro-1H-pyrrolizin-7a(5H)-yl)methoxy)-7-(5-methoxy-2-(trifluoromethoxy)phenyl)pyrido[4,3-d]pyrimidine (racemic, trans)] | 5.57

Each compound was assayed on KRas G12D-mediated phosphorylation of ERK (assay: Inhibition of KRas G12D-mediated phosphorylation of ERK in AGS cells). Settings: Homo sapiens; AGS cells expressing G12D, 3 hours, phospho-ERK normalized to GAPDH.
Type: cell-based
In short: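 Fixed, methanol-permeabilized; phospho-ERK (Thr202/Tyr204) by in-cell immunofluorescence normalized to GAPDH. Percent of DMSO control, IC50 by 4-parameter fit.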

Row | Compound | pIC50
2 | CS(=O)(=O)NC[C@H]1CC[C@@]2(COc3nc(N4C[C@H]5CC[C@@H](C4)N5)c4cnc(-c5cccc6cccc(Cl)c56)c(F)c4n3)CCCN12 [Example 420, N-(((3R,7aR)-7a-(((4-((1R,5S)-3,8-diazabicyclo[3.2.1]octan-3-yl)-7-(8-chloronaphthalen-1-yl)-8-fluoropyrido[4,3-d]pyrimidin-2-yl)oxy)methyl)hexahydro-1H-pyrrolizin-3-yl)methyl)methanesulfonamide] | 5.11
3 | Oc1ccc(CC(F)(F)F)c(-c2ncc3c(N4C[C@H]5CC[C@@H](C4)N5)nc(OC[C@@]45CCCN4C[C@H](F)C5)nc3c2F)c1 [Example 424, 3-(4-((1R,5S)-3,8-diazabicyclo[3.2.1]octan-3-yl)-8-fluoro-2-(((2R,7aS)-2-fluorohexahydro-1H-pyrrolizin-7a-yl)methoxy)pyrido[4,3-d]pyrimidin-7-yl)-4-(2,2,2-trifluoroethyl)phenol] | 6.17
4 | Fc1c(-c2cccc3cccc(Cl)c23)ncc2c(N3C[C@H]4CC[C@@H](C3)N4)nc(OCC34CC(F)CN3CC(F)C4)nc12 (stereo partly drawn) [Example 425, 4-((1R,5S)-3,8-diazabicyclo[3.2.1]octan-3-yl)-7-(8-chloronaphthalen-1-yl)-2-((2,6-difluorohexahydro-1H-pyrrolizin-7a-yl)methoxy)-8-fluoropyrido[4,3-d]pyrimidine] | 5.27
5 | CCc1c(F)ccc2cccc(-c3ncc4c(N5C[C@H]6CC[C@@H](C5)N6)nc(OCC56CCCN5CCC6)nc4c3F)c12 [Example 426, 4-((1R,5S)-3,8-diazabicyclo[3.2.1]octan-3-yl)-7-(8-ethyl-7-fluoronaphthalen-1-yl)-8-fluoro-2-((hexahydro-1H-pyrrolizin-7a-yl)methoxy)pyrido[4,3-d]pyrimidine] | 6.64
6 | CCn1ccc2cccc(-c3ncc4c(N5C[C@H]6CC[C@@H](C5)N6)nc(OCC56CCCN5CCC6)nc4c3F)c21 [Example 427, 4-((1R,5S)-3,8-diazabicyclo[3.2.1]octan-3-yl)-7-(1-ethyl-1H-indol-7-yl)-8-fluoro-2-((hexahydro-1H-pyrrolizin-7a-yl)methoxy)pyrido[4,3-d]pyrimidine] | 5.70
7 | Fc1c(-c2cccc3c2CCC3)ncc2c(N3CC4CCC(C3)N4)nc(OC[C@@]34CCCN3C[C@H](F)C4)nc12 [Example 428] | 5.16
8 | CC1CCc2cccc(-c3ncc4c(N5CC6CCC(C5)N6)nc(OC[C@@]56CCCN5C[C@H](F)C6)nc4c3F)c21 (stereo partly drawn) [Example 429, 4-(3,8-diazabicyclo[3.2.1]octan-3-yl)-8-fluoro-2-(((2R,7aS)-2-fluorotetrahydro-1H-pyrrolizin-7a(5H)-yl)methoxy)-7-(3-methyl-2,3-dihydro-1H-inden-4-yl)pyrido[4,3-d]pyrimidine] | 5.77
9 | Fc1ccc2cccc(-c3ncc4c(N5C[C@H]6CC[C@@H](C5)N6)nc(OC[C@@]56CCCN5C[C@H](F)C6)nc4c3F)c2c1F [Example 430, 4-((1R,5S)-3,8-diazabicyclo[3.2.1]octan-3-yl)-7-(7,8-difluoronaphthalen-1-yl)-8-fluoro-2-(((2R,7aS)-2-fluorotetrahydro-1H-pyrrolizin-7a(5H)-yl)methoxy)pyrido[4,3-d]pyrimidine] | 6.85
10 | CCc1cccc2cc(O)cc(-c3ncc4c(N5C[C@H]6CC[C@@H](C5)N6)nc(OC[C@]56CCCN5[C@@H](COC(=O)NC)CC6)nc4c3F)c12 [Example 433, ((3R,7aR)-7a-(((4-((1R,5S)-3,8-diazabicyclo[3.2.1]octan-3-yl)-7-(8-ethyl-3-hydroxynaphthalen-1-yl)-8-fluoropyrido[4,3-d]pyrimidin-2-yl)oxy)methyl)hexahydro-1H-pyrrolizin-3-yl)methyl methylcarbamate] | 7.36
11 | CCc1cccc2cc(O)cc(-c3ncc4c(N5CC6CCC(C5)N6)nc(OC[C@]56CCCN5[C@@H](COC(=O)N(C)C)CC6)nc4c3F)c12 [Example 434, 7a-(((4-((1R,5S)-3,8-diazabicyclo[3.2.1]octan-3-yl)-7-(8-ethyl-3-hydroxynaphthalen-1-yl)-8-fluoropyrido[4,3-d]pyrimidin-2-yl)oxy)methyl)hexahydro-1H-pyrrolizin-3-yl)methyl dimethyl carbamate] | 8.17
12 | CNC(=O)O[C@@H]1CN2CCC[C@]2(COc2nc(N3C[C@H]4CC[C@@H](C3)N4)c3cnc(-c4cccc5cccc(Cl)c45)c(F)c3n2)C1 [Example 435, (2S,7aR)-7a-(((4-((1R,5S)-3,8-diazabicyclo[3.2.1]octan-3-yl)-7-(8-chloronaphthalen-1-yl)-8-fluoropyrido[4,3-d]pyrimidin-2-yl)oxy)methyl)hexahydro-1H-pyrrolizin-2-yl methylcarbamate] | 5.74
13 | O=C(O[C@@H]1CN2CCC[C@]2(COc2nc(N3C[C@H]4CC[C@@H](C3)N4)c3cnc(-c4cccc5cccc(Cl)c45)c(F)c3n2)C1)N1CCOCC1 [Example 436, (2S,7aR)-7a-(((4-((1R,5S)-3,8-diazabicyclo[3.2.1]octan-3-yl)-7-(8-chloronaphthalen-1-yl)-8-fluoropyrido[4,3-d]pyrimidin-2-yl)oxy)methyl)hexahydro-1H-pyrrolizin-2-yl morpholine-4-carboxylate] | 5.40
14 | Fc1c(-c2cccc3c2CC2CC32)ncc2c(N3CC4CCC(C3)N4)nc(OC[C@@]34CCCN3C[C@H](F)C4)nc12 (stereo partly drawn) [Example 438, 4-(3,8-diazabicyclo[3.2.1]octan-3-yl)-8-fluoro-2-(((2R,7aS)-2-fluorotetrahydro-1H-pyrrolizin-7a(5H)-yl)methoxy)-7-(1,1a,6,6a-tetrahydrocyclopropa[a]inden-5-yl)pyrido[4,3-d]pyrimidine] | 5.79
15 | C#Cc1c(F)ccc2cccc(-c3ncc4c(N5C[C@H]6CC[C@@H](C5)N6)nc(OC[C@]56CCCN5[C@@H](COC(=O)N(C)C)CC6)nc4c3F)c12 [Example 439, ((3R,7aR)-7a-(((4-((1R,5S)-3,8-diazabicyclo[3.2.1]octan-3-yl)-7-(8-ethynyl-7-fluoronaphthalen-1-yl)-8-fluoropyrido[4,3-d]pyrimidin-2-yl)oxy)methyl)hexahydro-1H-pyrrolizin-3-yl)methyl dimethylcarbamate] | 7.89
16 | CCc1c(F)ccc2cc(O)cc(-c3ncc4c(N5C[C@H]6CC[C@@H](C5)N6)nc(OC[C@]56CCCN5[C@@H](COC(=O)N(C)C)CC6)nc4c3F)c12 [Example 441, ((3R,7aR)-7a-(((4-((1R,5S)-3,8-diazabicyclo[3.2.1]octan-3-yl)-7-(8-ethyl-7-fluoro-3-hydroxynaphthalen-1-yl)-8-fluoropyrido[4,3-d]pyrimidin-2-yl)oxy)methyl)hexahydro-1H-pyrrolizin-3-yl)methyl dimethylcarbamate] | 8.39
17 | O=C1OCCN1C[C@H]1CC[C@@]2(COc3nc(N4CC5CCC(C4)N5)c4cnc(-c5cccc6cccc(Cl)c56)c(F)c4n3)CCCN12 [Example 442, 3-(((3R,7aR)-7a-(((4-(3,8-diazabicyclo[3.2.1]octan-3-yl)-7-(8-chloronaphthalen-1-yl)-8-fluoropyrido[4,3-d]pyrimidin-2-yl)oxy)methyl)hexahydro-1H-pyrrolizin-3-yl)methyl)oxazolidin-2-one] | 5.93
18 | O=C(OC[C@H]1CC[C@@]2(COc3nc(N4CC5CCC(C4)N5)c4cnc(-c5cccc6cccc(Cl)c56)c(F)c4n3)CCCN12)N1CCCC1 [Example 443, ((3R,7aR)-7a-(((4-(3,8-diazabicyclo[3.2.1]octan-3-yl)-7-(8-chloronaphthalen-1-yl)-8-fluoropyrido[4,3-d]pyrimidin-2-yl)oxy)methyl)hexahydro-1H-pyrrolizin-3-yl)methyl pyrrolidine-1-carboxylate] | 6.80
19 | O=C(OC[C@H]1CC[C@@]2(COc3nc(N4CC5CCC(C4)N5)c4cnc(-c5cccc6cccc(Cl)c56)c(F)c4n3)CCCN12)N1CCCCC1 [Example 444, ((3R,7aR)-7a-(((4-(3,8-diazabicyclo[3.2.1]octan-3-yl)-7-(8-chloronaphthalen-1-yl)-8-fluoropyrido[4,3-d]pyrimidin-2-yl)oxy)methyl)hexahydro-1H-pyrrolizin-3-yl)methyl piperidine-1-carboxylate] | 6.44
20 | O=C(OC[C@H]1CC[C@@]2(COc3nc(N4CC5CCC(C4)N5)c4cnc(-c5cccc6cccc(Cl)c56)c(F)c4n3)CCCN12)N1CCOCC1 [Example 445, ((3R,7aR)-7a-(((4-(3,8-diazabicyclo[3.2.1]octan-3-yl)-7-(8-chloronaphthalen-1-yl)-8-fluoropyrido[4,3-d]pyrimidin-2-yl)oxy)methyl)hexahydro-1H-pyrrolizin-3-yl)methyl morpholine-4-carboxylate] | 6.89
21 | C[C@H]1C[C@@H]1c1c(Cl)cc(O)cc1-c1ncc2c(N3C[C@H]4CC[C@@H](C3)N4)nc(OC[C@@]34CCCN3C[C@H](F)C4)nc2c1F [Example 451, 3-(4-((1R,5S)-3,8-diazabicyclo[3.2.1]octan-3-yl)-8-fluoro-2-(((2R,7aS)-2-fluorotetrahydro-1H-pyrrolizin-7a(5H)-yl)methoxy)pyrido[4,3-d]pyrimidin-7-yl)-5-chloro-4-((1S,2S)-2-methylcyclopropyl)phenol] | 7.11
